In ChEMBL document CHEMBL2440076, “New triarylpyrazoles as broad-spectrum anticancer agents: design, synthesis, and biological evaluation” (Eur J Med Chem, 2013):

What was measured:
Format in all cases: functional
NCI-H322M [1] = assay: Growth inhibition of human NCI-H322M cells assessed as cell growth at 10^-5 M after 48 hrs by sulforhodamine B assay; settings: read-out: Activity
UACC-62 = assay: Growth inhibition of human UACC62 cells assessed as cell growth at 10^-6 M after 48 hrs by sulforhodamine B assay; settings: UACC-62, 48 h, read-out: Activity
HOP-62 = assay: Growth inhibition of human HOP62 cells assessed as cell growth at 10^-7 M after 48 hrs by sulforhodamine B assay; settings: HOP-62, 48 h, read-out: Activity
OVCAR-4 = assay: Growth inhibition of human OVCAR4 cells assessed as cell growth at 10^-5 M after 48 hrs by sulforhodamine B assay; settings: OVCAR-4, 48 h, read-out: Activity
SF-539 [2] = assay: Growth inhibition of human SF539 cells assessed as cell growth at 10^-8 M after 48 hrs by sulforhodamine B assay; settings: SF-539, 48 h, read-out: Activity
K562 [3] = assay: Growth inhibition of human K562 cells assessed as cell growth at 10^-8 M after 48 hrs by sulforhodamine B assay; settings: K562, 48 h, read-out: Activity
Malme-3M [4] = assay: Growth inhibition of human MALME-3M cells assessed as cell growth at 10^-4 M after 48 hrs by sulforhodamine B assay; settings: read-out: Activity
NCI-H23 = assay: Growth inhibition of human NCI-H23 cells assessed as cell growth at 10^-6 M after 48 hrs by sulforhodamine B assay; settings: NCI-H23, 48 h, read-out: Activity
MCF7 [5] = assay: Growth inhibition of human MCF7 cells assessed as cell growth at 10^-4 M after 48 hrs by sulforhodamine B assay; settings: MCF7, 48 h, read-out: Activity
T47D = assay: Growth inhibition of human T47D cells assessed as cell growth at 10^-6 M after 48 hrs by sulforhodamine B assay; settings: read-out: Activity
NCI-H460 = assay: Growth inhibition of human NCI-H460 cells assessed as cell growth at 10^-8 M after 48 hrs by sulforhodamine B assay; settings: NCI-H460, 48 h, read-out: Activity
SNB-19 [6] = assay: Growth inhibition of human SNB19 cells assessed as cell growth at 10^-4 M after 48 hrs by sulforhodamine B assay; settings: SNB-19, 48 h, read-out: Activity
HCT-15 [7] = assay: Growth inhibition of human HCT15 cells assessed as cell growth at 10^-5 M after 48 hrs by sulforhodamine B assay; settings: HCT-15, 48 h, read-out: Activity
UACC-257 [8] = assay: Growth inhibition of human UACC257 cells assessed as cell growth at 10^-8 M after 48 hrs by sulforhodamine B assay; settings: UACC-257, 48 h, read-out: Activity
OVCAR-3 = assay: Growth inhibition of human OVCAR3 cells assessed as cell growth at 10^-8 M after 48 hrs by sulforhodamine B assay; settings: OVCAR-3, 48 h, read-out: Activity
HL-60(TB) = assay: Growth inhibition of human HL-60(TB) cells assessed as cell growth at 10^-4 M after 48 hrs by sulforhodamine B assay; settings: HL-60, 48 h, read-out: Activity
MCF7 [9] = assay: Growth inhibition of human MCF7 cells assessed as cell growth at 10^-5 M after 48 hrs by sulforhodamine B assay; settings: MCF7, 48 h, read-out: Activity
BT-549 = assay: Growth inhibition of human BT549 cells assessed as cell growth at 10^-5 M after 48 hrs by sulforhodamine B assay; settings: BT-549, 48 h, read-out: Activity
KM12 = assay: Growth inhibition of human KM12 cells assessed as cell growth at 10^-5 M after 48 hrs by sulforhodamine B assay; settings: KM12, 48 h, read-out: Activity
SK-MEL-2 = assay: Growth inhibition of human SK-MEL-2 cells assessed as cell growth at 10^-8 M after 48 hrs by sulforhodamine B assay; settings: SK-MEL-2, 48 h, read-out: Activity
OVCAR-5 = assay: Growth inhibition of human OVCAR5 cells assessed as cell growth at 10^-4 M after 48 hrs by sulforhodamine B assay; settings: OVCAR-5, 48 h, read-out: Activity
SF-539 [10] = assay: Growth inhibition of human SF539 cells assessed as cell growth at 10^-4 M after 48 hrs by sulforhodamine B assay; settings: SF-539, 48 h, read-out: Activity
SNB-19 [11] = assay: Growth inhibition of human SNB19 cells assessed as cell growth at 10^-6 M after 48 hrs by sulforhodamine B assay; settings: SNB-19, 48 h, read-out: Activity
K562 [12] = assay: Growth inhibition of human K562 cells assessed as cell growth at 10^-7 M after 48 hrs by sulforhodamine B assay; settings: K562, 48 h, read-out: Activity
SW-620 = assay: Growth inhibition of human SW620 cells assessed as cell growth at 10^-6 M after 48 hrs by sulforhodamine B assay; settings: SW-620, 48 h, read-out: Activity
RXF 393 = assay: Growth inhibition of human RXF393 cells assessed as cell growth at 10^-7 M after 48 hrs by sulforhodamine B assay; settings: RXF 393, 48 h, read-out: Activity
NCI-H322M [13] = assay: Growth inhibition of human NCI-H322M cells assessed as cell growth at 10^-4 M after 48 hrs by sulforhodamine B assay; settings: read-out: Activity
UACC-257 [14] = assay: Growth inhibition of human UACC257 cells assessed as cell growth at 10^-4 M after 48 hrs by sulforhodamine B assay; settings: UACC-257, 48 h, read-out: Activity
HCT-15 [15] = assay: Growth inhibition of human HCT15 cells assessed as cell growth at 10^-7 M after 48 hrs by sulforhodamine B assay; settings: HCT-15, 48 h, read-out: Activity
COLO 205 = assay: Growth inhibition of human COLO205 cells assessed as cell growth at 10^-8 M after 48 hrs by sulforhodamine B assay; settings: COLO 205, 48 h, read-out: Activity
Malme-3M [16] = assay: Growth inhibition of human MALME-3M cells assessed as cell growth at 10^-5 M after 48 hrs by sulforhodamine B assay; settings: read-out: Activity
SF-268 = assay: Growth inhibition of human SF268 cells assessed as cell growth at 10^-6 M after 48 hrs by sulforhodamine B assay; settings: SF-268, 48 h, read-out: Activity
CAKI-1 = assay: Growth inhibition of human CAKI-1 cells assessed as cell growth at 10^-8 M after 48 hrs by sulforhodamine B assay; settings: CAKI-1, 48 h, read-out: Activity
MDA-MB-231 = assay: Growth inhibition of human MDA-MB-231 cells assessed as cell growth at 10^-6 M after 48 hrs by sulforhodamine B assay; settings: MDA-MB-231, 48 h, read-out: Activity
[17] = Growth inhibition of human Hs 578T cells assessed as cell growth at 10^-5 M after 48 hrs by sulforhodamine B assay; settings: read-out: Activity
ACHN = assay: Growth inhibition of human ACHN cells assessed as cell growth at 10^-5 M after 48 hrs by sulforhodamine B assay; settings: read-out: Activity
HCT-116 = assay: Growth inhibition of human HCT116 cells assessed as cell growth at 10^-7 M after 48 hrs by sulforhodamine B assay; settings: HCT-116, 48 h, read-out: Activity
[18] = Growth inhibition of human NCI-ADR-RES cells assessed as cell growth at 10^-5 M after 48 hrs by sulforhodamine B assay; settings: read-out: Activity

SMILES	growth at 10 µM (NCI-H322M [1]) [%]	growth at 1 µM (UACC-62) [%]	growth at 0.1 µM (HOP-62) [%]	growth at 10 µM (OVCAR-4) [%]	growth at 0.01 µM (SF-539 [2]) [%]	growth at 0.01 µM (K562 [3]) [%]	growth at 100 µM (Malme-3M [4]) [%]	growth at 1 µM (NCI-H23) [%]	growth at 100 µM (MCF7 [5]) [%]	growth at 1 µM (T47D) [%]	growth at 0.01 µM (NCI-H460) [%]	growth at 100 µM (SNB-19 [6]) [%]	growth at 10 µM (HCT-15 [7]) [%]	growth at 0.01 µM (UACC-257 [8]) [%]	growth at 0.01 µM (OVCAR-3) [%]	growth at 100 µM (HL-60(TB)) [%]	growth at 10 µM (MCF7 [9]) [%]	growth at 10 µM (BT-549) [%]	growth at 10 µM (KM12) [%]	growth at 0.01 µM (SK-MEL-2) [%]	further results
COc1cc(-c2nn(-c3cccc(NC(=O)c4ccccc4)c3)cc2-c2ccncc2)ccc1Cl	36	41	98	33	91	102	20	63	7	58	102	13	17	93	103	16	10	26	10	93	growth at 100 µM (OVCAR-5): 8%; growth at 100 µM (SF-539 [10]): -22%; growth at 1 µM (SNB-19 [11]): 47%; growth at 0.1 µM (K562 [12]): 99%; growth at 1 µM (SW-620): 35%; growth at 0.1 µM (RXF 393): 113%; growth at 100 µM (NCI-H322M [13]): 34%; growth at 100 µM (UACC-257 [14]): 24%; growth at 0.1 µM (HCT-15 [15]): 96%; growth at 0.01 µM (COLO 205): 100%; growth at 10 µM (Malme-3M [16]): 8%; growth at 1 µM (SF-268): 47%; growth at 0.01 µM (CAKI-1): 94%; growth at 1 µM (MDA-MB-231): 53%; growth at 10 µM [17]: 18%; growth at 10 µM (ACHN): 26%; growth at 0.1 µM (HCT-116): 95%; growth at 10 µM [18]: 5%
COc1cc(-c2nn(-c3cccc(NC(=O)c4ccc(N5CCOCC5)c(C(F)(F)F)c4)c3)cc2-c2ccncc2)ccc1Cl	26	42	90	32	93	99	-24	47	8	42	100	15	7	95	110	6	8	25	-6	111	growth at 100 µM (OVCAR-5): 2%; growth at 100 µM (SF-539 [10]): -40%; growth at 1 µM (SNB-19 [11]): 38%; growth at 0.1 µM (K562 [12]): 29%; growth at 1 µM (SW-620): 36%; growth at 0.1 µM (RXF 393): 78%; growth at 100 µM (NCI-H322M [13]): -1%; growth at 100 µM (UACC-257 [14]): -31%; growth at 0.1 µM (HCT-15 [15]): 65%; growth at 0.01 µM (COLO 205): 106%; growth at 10 µM (Malme-3M [16]): -14%; growth at 1 µM (SF-268): 41%; growth at 0.01 µM (CAKI-1): 94%; growth at 1 µM (MDA-MB-231): 18%; growth at 10 µM [17]: 3%; growth at 10 µM (ACHN): 2%; growth at 0.1 µM (HCT-116): 75%; growth at 10 µM [18]: 2%
